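How tested: cells in 96-well plates exposed to compound for 48 hours at five concentrations. Here, GI50 denotes the concentration required for 50% inhibition of growth.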 Activity calls are given as the source filed them. No stated cut-off is given here; in the data, active = GI50 up to about 1.1 µM and inactive = higher.
Experiments:
Test in all cases: DTP human tumour cell line panel, 48 h
NCI-H23 = system: NCI-H23
DU-145 = system: DU-145
MDA-MB-435 = system: MDA-MB-435
NCI/ADR-RES = system: NCI/ADR-RES
SR = system: SR
UACC-257 = system: UACC-257
A498 = system: A498
SNB-75 = system: SNB-75
OVCAR-4 = system: OVCAR-4
Malme-3M = system: Malme-3M
CAKI-1 = system: CAKI-1
SF-295 = system: SF-295
UACC-62 = system: UACC-62
MDA-N = system: MDA-N
HT-29 = system: HT-29
HCT-15 = system: HCT-15
ACHN = system: ACHN
SW-620 = system: SW-620
SK-MEL-28 = system: SK-MEL-28
U-251 = system: U-251

Row | Compound | GI50 (NCI-H23) | GI50 (DU-145) | GI50 (MDA-MB-435) | GI50 (NCI/ADR-RES) | GI50 (SR) | GI50 (UACC-257) | GI50 (A498) | GI50 (SNB-75) | GI50 (OVCAR-4) | GI50 (Malme-3M) | GI50 (CAKI-1) | GI50 (SF-295) | GI50 (UACC-62) | GI50 (MDA-N) | GI50 (HT-29) | GI50 (HCT-15) [µM] | GI50 (ACHN) | GI50 (SW-620) | GI50 (SK-MEL-28) | GI50 (U-251)
1 | O=c1c2ccccc2n2c(-c3ccc(O)cc3)nnc2n1-c1ccccc1 | 20.3 µM (inactive) | 21.9 µM (inactive) | 18.5 µM (inactive) | 21.5 µM (inactive) | 21.3 µM (inactive) | 21.5 µM (inactive) | 13 µM (inactive) | 18.7 µM (inactive) | 20 µM (inactive) | 21.5 µM (inactive) | 29.6 µM (inactive) | 15.6 µM (inactive) | 19.6 µM (inactive) | 15.7 µM (inactive) | 22.1 µM (inactive) | 23.1 | 16.1 µM (inactive) | 13.5 µM (inactive) | 24.3 µM (inactive) | 17.2 µM (inactive)
2 | C/C(=N\N=C1/C(=O)OC(c2ccccc2)=C1C(=O)c1ccccc1)c1ccc([N+](=O)[O-])cc1 | 92.9 µM (inactive) | 44.4 µM (inactive) | 46.7 µM (inactive) | 60.7 µM (inactive) | 6.7 µM (inactive) | > 100 µM (inactive) | > 100 µM (inactive) | – | 37.4 µM (inactive) | 37.4 µM (inactive) | 48.2 µM (inactive) | 45.6 µM (inactive) | 38.9 µM (inactive) | 87.9 µM (inactive) | 73.8 µM (inactive) | 23.7 | 42.6 µM (inactive) | 46.7 µM (inactive) | 54.7 µM (inactive) | 41.5 µM (inactive)
3 | Cc1c(O)nc(-n2[nH]c3c(c2=O)CCCC3)[nH]c1=O | > 100 µM (inactive) | > 100 µM (inactive) | > 100 µM (inactive) | > 100 µM (inactive) | > 100 µM (inactive) | > 100 µM (inactive) | > 100 µM (inactive) | – | > 100 µM (inactive) | > 100 µM (inactive) | > 100 µM (inactive) | > 100 µM (inactive) | > 100 µM (inactive) | > 100 µM (inactive) | > 100 µM (inactive) | > 100 | > 100 µM (inactive) | > 100 µM (inactive) | > 100 µM (inactive) | > 100 µM (inactive)
4 | COc1ccc(C)cc1NC(=S)N/N=C/c1ccco1 | 53.2 µM (inactive) | > 100 µM (inactive) | 16 µM (inactive) | 31.4 µM (inactive) | 11.3 µM (inactive) | 30.9 µM (inactive) | 57.3 µM (inactive) | 39.9 µM (inactive) | 37.4 µM (inactive) | 52.2 µM (inactive) | 55.2 µM (inactive) | 40.2 µM (inactive) | 46.8 µM (inactive) | 18.6 µM (inactive) | 29 µM (inactive) | 34.2 | > 100 µM (inactive) | 36.5 µM (inactive) | 60.8 µM (inactive) | –
5 | Brc1ccc(/C(N=N/C(=N\Sc2ccccc2)c2ccc(Br)cc2)=N/Sc2ccccc2)cc1 | > 100 µM (inactive) | > 100 µM (inactive) | > 100 µM (inactive) | > 100 µM (inactive) | > 86.9 µM (inactive) | > 100 µM (inactive) | > 100 µM (inactive) | > 71.8 µM (inactive) | > 100 µM (inactive) | > 100 µM (inactive) | > 100 µM (inactive) | > 100 µM (inactive) | > 100 µM (inactive) | > 100 µM (inactive) | > 100 µM (inactive) | > 100 | > 61.1 µM (inactive) | > 100 µM (inactive) | > 100 µM (inactive) | > 100 µM (inactive)
6 | O=C1CSC(c2cccc(Cl)c2)N1c1ccc(-c2ccc(-n3c(-c4ccccc4)nc4ccccc4c3=O)cc2)cc1 (stereo not drawn) | 58.5 µM (inactive) | 53.7 µM (inactive) | 52.1 µM (inactive) | 36.9 µM (inactive) | 18.9 µM (inactive) | 80.5 µM (inactive) | > 100 µM (inactive) | – | 35.1 µM (inactive) | 46 µM (inactive) | > 100 µM (inactive) | 51.8 µM (inactive) | 31.4 µM (inactive) | 47.9 µM (inactive) | 38.9 µM (inactive) | 33.5 | 45.8 µM (inactive) | > 100 µM (inactive) | 75.3 µM (inactive) | 52.1 µM (inactive)
7 | CC(=O)n1nc(-c2ccccc2)n(/N=C/c2ccc([N+](=O)[O-])o2)c1=O | 7.64 µM (inactive) | 7.91 µM (inactive) | 6.5 µM (inactive) | 9.73 µM (inactive) | 3.08 µM (inactive) | 7.23 µM (inactive) | 2.47 µM (inactive) | 10.2 µM (inactive) | 15.1 µM (inactive) | 6.67 µM (inactive) | 9.46 µM (inactive) | 1.66 µM (inactive) | 10.4 µM (inactive) | 1.81 µM (inactive) | 3.37 µM (inactive) | 6.84 | 8.38 µM (inactive) | 5.87 µM (inactive) | 9.84 µM (inactive) | 15.9 µM (inactive)
8 | CCNC(=O)NNc1ncnc2c1c(-c1ccc(Cl)cc1)cn2-c1ccc(C)cc1 | 24.6 µM (inactive) | 21.5 µM (inactive) | 17 µM (inactive) | 20 µM (inactive) | 20.2 µM (inactive) | 21.3 µM (inactive) | 15.7 µM (inactive) | 16.7 µM (inactive) | 11.5 µM (inactive) | 18.8 µM (inactive) | 25.4 µM (inactive) | 15.7 µM (inactive) | 15.3 µM (inactive) | 19.8 µM (inactive) | 18.3 µM (inactive) | 20.5 | 17.7 µM (inactive) | 21.2 µM (inactive) | 18.9 µM (inactive) | 17.1 µM (inactive)
9 | COC(=O)c1cc(C)n(CN(Cn2nc(C(=O)OC)cc2C)c2ccccc2)n1 | 25.2 µM (inactive) | 25.9 µM (inactive) | 42.9 µM (inactive) | 21.2 µM (inactive) | 10 µM (inactive) | 33.3 µM (inactive) | > 100 µM (inactive) | – | 18.4 µM (inactive) | 43.2 µM (inactive) | 37.8 µM (inactive) | 32.8 µM (inactive) | 15.1 µM (inactive) | 38.5 µM (inactive) | 16.7 µM (inactive) | 18 | 18.7 µM (inactive) | 29.6 µM (inactive) | 32.8 µM (inactive) | 39 µM (inactive)
10 | Oc1ccc(Cn2c(-c3ccc(O)c(O)c3)nc3ccccc32)cc1O | 23.3 µM (inactive) | 24.5 µM (inactive) | 12.8 µM (inactive) | 32.9 µM (inactive) | 3.72 µM (inactive) | 33 µM (inactive) | 90.2 µM (inactive) | 12.1 µM (inactive) | 4.9 µM (inactive) | 9.12 µM (inactive) | 15.5 µM (inactive) | 23.6 µM (inactive) | – | 15 µM (inactive) | 30.3 µM (inactive) | 7.48 | 10.9 µM (inactive) | 13.4 µM (inactive) | 22.1 µM (inactive) | 5.09 µM (inactive)
11 | O=C(NNC(=O)c1c(Cl)c(Cl)c(Cl)c(Cl)c1-c1nc2ccccc2[nH]1)c1ccc(Cl)cc1 | 40.6 µM (inactive) | 42.5 µM (inactive) | 24 µM (inactive) | 32.9 µM (inactive) | 33.8 µM (inactive) | – | 54.5 µM (inactive) | 38.5 µM (inactive) | 50.2 µM (inactive) | 89.3 µM (inactive) | 40.6 µM (inactive) | 44.5 µM (inactive) | 56.4 µM (inactive) | 21.3 µM (inactive) | 58.6 µM (inactive) | 34.4 | 46.9 µM (inactive) | 50.7 µM (inactive) | 81.1 µM (inactive) | –
12 | Nc1nc2cc(CNc3ccc(C(=O)O)cc3)ccc2nc1-c1ccccc1 | 88.7 µM (inactive) | 44.6 µM (inactive) | > 100 µM (inactive) | > 100 µM (inactive) | > 100 µM (inactive) | > 100 µM (inactive) | > 100 µM (inactive) | 66.5 µM (inactive) | > 100 µM (inactive) | > 100 µM (inactive) | – | > 100 µM (inactive) | > 10 µM (inactive) | > 100 µM (inactive) | > 100 µM (inactive) | > 100 | > 100 µM (inactive) | > 100 µM (inactive) | > 100 µM (inactive) | > 100 µM (inactive)
13 | CCOC(=O)/C=C/c1cccc(F)c1 | > 100 µM (inactive) | > 100 µM (inactive) | > 100 µM (inactive) | > 100 µM (inactive) | > 100 µM (inactive) | > 100 µM (inactive) | > 100 µM (inactive) | > 100 µM (inactive) | > 100 µM (inactive) | > 100 µM (inactive) | > 100 µM (inactive) | – | > 100 µM (inactive) | > 100 µM (inactive) | > 100 µM (inactive) | > 100 | > 100 µM (inactive) | > 100 µM (inactive) | > 100 µM (inactive) | > 100 µM (inactive)
14 | CON(C)C(=O)CNC(=O)OCC1c2ccccc2-c2ccccc21 | > 100 µM (inactive) | > 100 µM (inactive) | > 100 µM (inactive) | > 100 µM (inactive) | 30.6 µM (inactive) | > 100 µM (inactive) | 57.5 µM (inactive) | > 100 µM (inactive) | > 100 µM (inactive) | > 100 µM (inactive) | – | > 100 µM (inactive) | > 100 µM (inactive) | > 100 µM (inactive) | > 100 µM (inactive) | 78 | > 100 µM (inactive) | > 100 µM (inactive) | > 100 µM (inactive) | 98.4 µM (inactive)
15 | CN(C)c1ccc(/N=C2/NC(=N\c3ccccc3)/C(=N/c3ccccc3)S2)cc1 | > 100 µM (inactive) | > 100 µM (inactive) | > 100 µM (inactive) | > 100 µM (inactive) | > 100 µM (inactive) | > 100 µM (inactive) | 87.3 µM (inactive) | 27.2 µM (inactive) | > 100 µM (inactive) | > 100 µM (inactive) | > 100 µM (inactive) | > 100 µM (inactive) | 51.2 µM (inactive) | > 100 µM (inactive) | > 100 µM (inactive) | > 100 | 49.1 µM (inactive) | > 100 µM (inactive) | > 100 µM (inactive) | –

Reference: ChEMBL document CHEMBL1201862, “PubChem BioAssay data set” (2004)
